# From PMC5442318, “Hundreds of dual-stage antimalarial molecules discovered by a functional gametocyte screen” (Nature Communications, 2017)
# Experiments:
# [1] = test system: P. falciparum stage V female gametocytes; test: P. falciparum female gametocyte activation assay (Pf FGAA), 24 h or 48 h preincubation, Pfs25 expression readout; type: cell-based, Plasmodium falciparum NF54; conditions: mean; read-out: Gametocytes mean Pf FGAA IC50
# How it was run: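 Female activation, triggered by xanthurenic acid and cooling, was scored by imaging Cy3-labelled anti-Pfs25 female gametes after 24 h at 26 °C. Beforehand, purified NF54 stage V gametocytes had been incubated with compound for either 24 h or 48 h (37 °C, 3% O2). Values are pIC50 from full-curve regression.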
# [2] = test system: P. falciparum stages IV–V gametocytes; test: Gametocytocidal ATP-depletion assay (gametocyte ATP bioluminescence); type: cell-based, Plasmodium falciparum
# How it was run: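 Read-out is luciferase luminescence of parasite ATP (BacTiter-Glo), standing in for viability. Double-purified mature stage IV–V gametocytes, 12,500 per well, were exposed 48 h at 37 °C in low-O2 gas; screening concentration 2 μM.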
# HepG2 cells = test: HepG2 cytotoxicity assay; type: cell-based; conditions: mean
# How it was run: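 Luminescent read-out (CellTiter-Glo) taken 10 min after reagent addition at RT; plates and reagent pre-equilibrated 30 min at RT.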
# [3] = test system: P. falciparum asexual blood stages; conditions: TCAMS data; ref 1 (Gamo et al., 2010); read-out: Pf Asexual blood stages XC50; cited from earlier work
Compound,IC50 [1],Gametocytes mean ATP inhibition at 2µM (%) [2],HepG2 cells mean TOX50 (HepG2 cells),IC50 [3]
Cc1oc(-c2ccc(Cl)cc2)cc1C(=O)NCCC1CCN(CCCCCNC(=O)/C=C/c2ccc(Cl)c(Cl)c2)CC1 [TCMDC-140009],1830 nM,-9.24%,3.31 µM,450 nM
CC(Cc1ccc(OCCCCOc2ccccc2)cc1)NCCC1CCCN1C (stereo not drawn) [TCMDC-140017],200 nM,85.16%,1.12 µM,40 nM
Nc1ccc2[nH]cc(C3CCN(CC4CCN(C(=O)/C=C/c5ccc(Cl)c(Cl)c5)CC4)CC3)c2n1 [TCMDC-140061],1770 nM,-11.61%,5.89 µM,700 nM
Nc1ccc2[nH]cc(C3CCN(CCC4CCN(C(=O)/C=C/c5ccc(Cl)c(Cl)c5)CC4)CC3)c2n1 [TCMDC-140062],1290 nM,-11.87%,8.13 µM,740 nM
O=C(/C=C/c1ccc(Cl)c(Cl)c1)N1CCC(CN2CCC(c3c[nH]c4ccncc34)CC2)CC1 [TCMDC-140074],870 nM,-2.94%,5.32 µM,730 nM
CN(CCCCN)Cc1ccc(-c2ccc(Cl)cc2)cc1 [TCMDC-140123],1580 nM,17.75%,3.55 µM,880 nM
Nc1cc2c(C3CCN(CC4CCN(C(=O)/C=C/c5ccc(Cl)c(Cl)c5)CC4)CC3)c[nH]c2cn1 [TCMDC-140133],1970 nM,-6.84%,6.24 µM,980 nM
COc1ccc(-c2ccccc2)cc1NC(=S)NC1CCC(CN2CCC(c3c[nH]c4ccccc34)CC2)CC1 (stereo not drawn) [TCMDC-140182],1650 nM,21.09%,5.50 µM,650 nM
CC(C)(CN)c1nc(-c2ccc(Cl)c(O)c2)c(-c2ccncc2)[nH]1.Cl [TCMDC-140369],940 nM,-0.49%,2.16 µM,760 nM
CN1CCN(CCCN(Cc2cccc(-c3ccc(CNC4CCCC4)cc3)c2)C(=O)/C=C/c2ccccc2)CC1.O=C(O)C(F)(F)F [TCMDC-140544],1360 nM,0.64%,7.70 µM,750 nM
CN1CCN(CCCN(Cc2cccc(-c3ccc(CNCCc4ccccc4)cc3)c2)C(=O)c2cccs2)CC1.O=C(O)C(F)(F)F [TCMDC-140568],1710 nM,-8.58%,5.98 µM,720 nM
CN1CCN(CCCNCc2cccc(-c3ccc(CNCCc4ccccc4)cc3)c2)CC1 [TCMDC-140643],1910 nM,22.49%,7.92 µM,780 nM
COc1cc(NCCCNCc2cn(Cc3cc(Br)cc(Br)c3)c3ccccc23)nc2ccccc12 [TCMDC-140677],860 nM,11.13%,3.94 µM,190 nM
CN(C)CCCOc1ccc(CN2CCC(c3c[nH]c4ccc(NCC5CCCCC5)cc34)CC2)cc1.O=C(O)C(F)(F)F [TCMDC-140737],560 nM,-13.51%,5.48 µM,680 nM
CCN(CC)CCN(Cc1ccc(-c2ccc(C(F)(F)F)cc2)cc1)C(=O)Cn1cc(Cc2cnn(C)c2)c(=O)nc1/C=C/c1ccc(F)cc1.O=C(O)C(O)C(O)C(=O)O [TCMDC-140741],1210 nM,46.80%,13.81 µM,1060 nM
CC(C)(C)c1ccc(CNC(=O)/C=C/c2ccc(CNC3CCNCC3)cc2)cc1 [TCMDC-140773],1920 nM,8.96%,9.47 µM,1090 nM
CC(C)(C)c1ccc(CNC(=O)c2cc(CNC3CCNCC3)ccc2O)cc1 [TCMDC-140775],2000 nM,-11.19%,13.96 µM,710 nM
CC(C)(C)c1ccc(CNC(=O)c2ccc(CNC3CCC(N)CC3)s2)cc1 (stereo not drawn) [TCMDC-140777],2440 nM,10.64%,8.95 µM,530 nM
